Here are results for 15 compounds from US11149031B2, “Substituted N-(3-fluoropropyl)-pyrrolidine compounds, processes for their preparation and therapeutic uses thereof” (SANOFI, priority 2016, dated 2021).

pIC50: −log10 of the molar value.

The target in experiment [1] is ERα in MCF7 cells (Homo sapiens (Human), UniProt P03372). Kind of experiment: Test C: estrogen receptor degradation activity, ERα in cell western assay in MCF7 cells. It is filed as cell-based. To be noted: for DC50: 4 hours post compound addition, ERα in cell western, read-out: Degradation IC50; for % Degradation at 3 μM: 4 hours, relative to fulvestrant. Here is the method: Test C: Estrogen Receptor Degradation Activity
Test C involves measuring the in vitro degradation activity of the compounds of the invention.
The measurements of the degradation activities were made using abreast cancer cell ERα in cell western assay as described hereunder.
MCF7 cells (ATCC) were seeded in 384 wells microplate (collagen coated) at concentration of >9990 cells/30 μL per well in red phenol free MEM alpha medium (invitrogen) containing 5% charcoal dextran striped FBS. The following day, 9 points serial 1:5 dilution of each compound were added to the cells in 2.5 μL at final concentrations ranging from 3-0.000018 μM or 0.1 μM for fulvestrant (using as positive control). At 4 hours post compounds addition the cells were fixed by adding 25 μL of formalin (final concentration 5% formalin containing 0.1% triton) for 10 minutes at room temperature and then washed twice with PBS. Then, 50 μL of LI-COR blocking buffer containing 0.1% Triton was added to plate for 30 minutes at room temperature. LI-COR blocking buffer was removed and cells were incubated overnight at cold room with 50 μL anti-ER rabbit monoclonal antibody (Thermo scientific MA1-39540) diluted at 1:>999 in LI-COR blocking buffer containing 0.1% tween-20. Wells which were treated with blocking but no antibody were used as background control. Wells were washed twice with PBS (0.1% tween-20) and incubated at 37° C. for 60 minutes in LI-COR (0.1% tween-20) containing goat anti-rabbit antibody Alexa 488 (1:>999) and Syto-64 a DNA dye (2 μM final concentration). Cells were then washed 3 times in PBS and scanned in ACUMEN explorer (TTP-Labtech). Integrated intensities in the green fluorescence and red fluorescence were measured to determine the levels of ERα and DNA respectively.

Experiment [2] concerns the target His6-ERα298-554 WT (ERα ligand-binding domain) (Homo sapiens (Human), UniProt P03372). Kind of experiment: Test A: biochemical antagonist activity, LanthaScreen TR-FRET ERα coactivator assay, WT. As to conditions: protocol with 3 nM estradiol; read-out: Antagonism WT IC50. Here is the method:
(§1) Test A: Biochemical Antagonist Activity on Wild Type (WT) and Mutants
(§2) Estrogen Receptors Test A involves measuring the in vitro antagonist activity of the compounds of the invention on estrogen receptors.
(§3) The measurements of the antagonist activities were made using an estrogen receptor coactivator assay as described hereunder.
(§4) Antagonistic potency of compounds was evaluated using LanthaScreen® TR-FRET ERα Coactivator Assay (ThermoFisher) with modifications. […] The assay works in a homogeneous mix-and-read format. In a typical experiment, a 4 μL mixture of 0.5 nM His6-ERα298-554, 0.5 nM Tb-labeled His6 antibody, 250 nM PGC1a peptide, and 3 nM estradiol (or 10 nM estradiol) in 100 mM potassium phosphate, pH 7.4, 0.01% Tween-20, 0.02% NaN3, 5 mM DTT, was added to 40 nL test compound in DMSO and incubated overnight at room temperature. The TR-FRET 520:495 nm emission ratio was calculated and used to determine the IC50 value from a dose response curve fit to the 4-parameter logistic equation.
On the technique in general: TR-FRET usually uses a lanthanide donor and a delayed reading to cut background.

For experiment [3], the target named is His6-ERα298-554 D538G mutant (ERα ligand-binding domain) (Homo sapiens (Human), UniProt P03372, D538G). Kind of experiment: Test A: biochemical antagonist activity, LanthaScreen TR-FRET ERα coactivator assay, D538G mutant. To be noted: protocol with 3 nM estradiol; read-out: Antagonism D538G IC50. The method, then:
as §1, §2, §3, §4

In experiment [4] the target is His6-ERα298-554 Y537S mutant (ERα ligand-binding domain) (Homo sapiens (Human), UniProt P03372, Y537S). Kind of experiment: Test A: biochemical antagonist activity, LanthaScreen TR-FRET ERα coactivator assay, Y537S mutant. As to conditions: protocol with 3 nM estradiol; read-out: Antagonism Y537S IC50. Here is the method: as §1, §2, §3, §4
Sequence of His6-ERα298-554 Y537S mutant (ERα ligand-binding domain) (P03372 298-554 Y537S): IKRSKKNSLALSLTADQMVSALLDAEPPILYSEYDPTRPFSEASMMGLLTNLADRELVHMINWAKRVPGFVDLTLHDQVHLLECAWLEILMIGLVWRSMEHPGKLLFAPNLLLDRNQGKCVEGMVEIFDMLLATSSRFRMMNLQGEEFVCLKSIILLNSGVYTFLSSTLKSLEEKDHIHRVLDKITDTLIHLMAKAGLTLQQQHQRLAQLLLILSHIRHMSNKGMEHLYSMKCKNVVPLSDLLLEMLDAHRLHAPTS

Sequence of His6-ERα298-554 WT (ERα ligand-binding domain) (P03372 298-554): as the sequence (P03372 298-554 Y537S) above, with S240Y counted along it
Sequence of His6-ERα298-554 D538G mutant (ERα ligand-binding domain) (P03372 298-554 D538G): as the sequence (P03372 298-554 Y537S) above, with S240Y, D241G counted along it
Sequence of ERα in MCF7 cells (P03372 whole entry): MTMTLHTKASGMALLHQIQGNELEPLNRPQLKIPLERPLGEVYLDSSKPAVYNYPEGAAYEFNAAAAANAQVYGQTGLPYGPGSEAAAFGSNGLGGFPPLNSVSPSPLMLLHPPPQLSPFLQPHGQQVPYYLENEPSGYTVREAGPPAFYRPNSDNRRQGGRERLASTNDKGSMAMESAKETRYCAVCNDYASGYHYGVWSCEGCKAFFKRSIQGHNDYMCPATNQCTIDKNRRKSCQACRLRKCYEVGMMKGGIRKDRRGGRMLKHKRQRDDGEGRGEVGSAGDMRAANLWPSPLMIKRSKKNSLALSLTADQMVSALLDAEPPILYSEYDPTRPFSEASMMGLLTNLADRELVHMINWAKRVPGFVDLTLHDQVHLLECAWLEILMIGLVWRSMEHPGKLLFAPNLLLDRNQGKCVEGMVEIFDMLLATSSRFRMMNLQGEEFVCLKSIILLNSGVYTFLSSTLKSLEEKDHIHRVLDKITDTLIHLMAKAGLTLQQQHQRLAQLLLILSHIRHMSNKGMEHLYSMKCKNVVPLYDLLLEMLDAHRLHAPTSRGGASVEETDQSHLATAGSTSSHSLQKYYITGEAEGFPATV

`Cc1cc2c(cc1O)OCCC(c1cccc(Cl)c1C)=C2c1ccc(O[C@H]2CCN(CCCF)C2)cc1` [Example 135, 4-(3-chloro-2-methyl-phenyl)-5-[4-[(3S)-1-(3-fluoropropyl)pyrrolidin-3-yl]oxyphenyl]-7-methyl-2,3-dihydro-1-benzoxepin-8-ol]: in experiment [1], the DC50 stood at 3 nM. For the same compound, the “% Degradation at 3 μM” value in experiment [1] is on record as 87%. Besides, the negative-log IC50 (pIC50) (usually the IC50 on a negative log10 scale, so that one unit is a factor of ten) in experiment [2] is 7.68; in experiment [3], 6.23; in experiment [4], 6.45.
Take `Oc1ccc2c(c1Cl)OCCC(c1cccc3c1CCN3)=C2c1ccc(O[C@H]2CCN(CCCF)C2)cc1` [Example 128, 9-chloro-5-[4-[(3S)-1-(3-fluoropropyl)pyrrolidin-3-yl]oxyphenyl]-4-indolin-4-yl-2,3-dihydro-1-benzoxepin-8-ol]: the DC50 in experiment [1] amounted to 14 nM. Moreover, the “% Degradation at 3 μM” value in experiment [1] is on record as 72%. The pIC50 was 7.02 in experiment [2], 5.92 in experiment [3] and 6.03 in experiment [4].
On to `Cc1c(O)ccc2c1OCCC(c1ccc3c(c1)CCN3)=C2c1ccc(O[C@H]2CCN(CCCF)C2)cc1` [Example 118, 5-[4-[(3S)-1-(3-fluoropropyl)pyrrolidin-3-yl]oxyphenyl]-4-indolin-5-yl-9-methyl-2,3-dihydro-1-benzoxepin-8-ol], for which the DC50 in experiment [1] is 126 nM. Moreover, in experiment [1], the “% Degradation at 3 μM” value amounted to 74%. Also, the values for the negative logarithm of the IC50 (pIC50) in experiment [2], in experiment [3] and in experiment [4] were 6.82, 6.35 and 6.63, respectively.
Consider `O=S1(=O)CCC(c2ccc(Cl)cc2F)=C(c2ccc(O[C@H]3CCN(CCCF)C3)cc2)c2ccc(O)cc21` [Example 233, 4-(4-chloro-2-fluoro-phenyl)-5-[4-[(3S)-1-(3-fluoropropyl)pyrrolidin-3-yl]oxyphenyl]-1,1-dioxo-2,3-dihydro-1λ^6-benzothiepin-8-ol], for which, in experiment [1], the DC50 came out at 0.2 nM. Also, the “% Degradation at 3 μM” value in experiment [1] was determined as 94%. Also, the results for the pIC50 in experiment [2], in experiment [3] and in experiment [4] were 7.70, 6.89 and 7.15, respectively.
On the same counts, the results for `Oc1ccc(C2=C(c3ccc(O[C@H]4CCN(CCCF)C4)cc3)c3ccc(O)cc3SCC2)c(F)c1` [Example 169, 4-(2-fluoro-4-hydroxy-phenyl)-5-[4-[(3S)-1-(3-fluoropropyl)pyrrolidin-3-yl]oxyphenyl]-2,3-dihydro-1-benzothiepin-8-ol] are 0.2 nM, 85%, 8.70, 8.30 and 8.52.
On to `Cc1c(Cl)cccc1C1=C(c2ccc(O[C@H]3CCN(CCCF)C3)cc2)c2cc(O)ccc2SCC1` [Example 173, 4-(3-chloro-2-methyl-phenyl)-5-[4-[(3S)-1-(3-fluoropropyl)pyrrolidin-3-yl]oxyphenyl]-2,3-dihydro-1-benzothiepin-7-ol], for which, in experiment [1], the DC50 was found to be 4 nM. Also, the “% Degradation at 3 μM” value in experiment [1] is on record as 82%. Besides, the pIC50 in experiment [2] was 7.68; in experiment [3], 6.84; in experiment [4], 7.06.
On the same counts, the results for `Oc1ccc2c(c1)SCCC(c1ccc(F)cc1Cl)=C2c1ccc(O[C@H]2CCN(CCCF)C2)cc1` [Example 159, 4-(2-chloro-4-fluoro-phenyl)-5-[4-[(3S)-1-(3-fluoropropyl)pyrrolidin-3-yl]oxyphenyl]-2,3-dihydro-1-benzothiepin-8-ol] are 0.5 nM, 89%, 8.52, 7.77 and 8.00.
As to `Cc1cc(F)ccc1C1=C(c2ccc(O[C@H]3CCN(CCCF)C3)cc2)c2cc(O)ccc2SCC1` [Example 180, 4-(4-fluoro-2-methyl-phenyl)-5-[4-[(3S)-1-(3-fluoropropyl)pyrrolidin-3-yl]oxyphenyl]-2,3-dihydro-1-benzothiepin-7-ol], in experiment [1], the DC50 came out at 3 nM. Besides, the “% Degradation at 3 μM” value in experiment [1] came out at 80%. The pIC50 in experiment [2] was 8.15; in experiment [3], 7.44; in experiment [4] it was 7.80.
Regarding `Oc1cccc(C2=C(c3ccc(O[C@H]4CCN(CCCF)C4)cc3)c3ccc(O)cc3SCC2)c1` [Example 158, 5-[4-[(3S)-1-(3-fluoropropyl)pyrrolidin-3-yl]oxyphenyl]-4-(3-hydroxyphenyl)-2,3-dihydro-1-benzothiepin-8-ol], the DC50 in experiment [1] came to 0.2 nM. Moreover, in experiment [1], the “% Degradation at 3 μM” value was found to be 88%. The pIC50 is 9.00 in experiment [2], 8.40 in experiment [3] and 8.52 in experiment [4].
With `Cc1cc2c(cc1O)OCCC(c1ccc3c(c1)CCN3)=C2c1ccc(O[C@H]2CCN(CCCF)C2)cc1` [Example 137, 5-[4-[(3S)-1-(3-fluoropropyl)pyrrolidin-3-yl]oxyphenyl]-4-indolin-5-yl-7-methyl-2,3-dihydro-1-benzoxepin-8-ol], the DC50 in experiment [1] came out at 5 nM. In addition, in experiment [1], the “% Degradation at 3 μM” value was determined as 75%. Moreover, the pIC50 in experiment [2] is 6.60; in experiment [3], 5.77; in experiment [4], 5.91.
As for `Oc1ccc2c(c1)OCCC(c1ccc(Cl)c(F)c1)=C2c1ccc(O[C@H]2CCN(CCCF)C2)cc1` [Example 97, 4-(4-chloro-3-fluoro-phenyl)-5-[4-[(3S)-1-(3-fluoropropyl)pyrrolidin-3-yl]oxyphenyl]-2,3-dihydro-1-benzoxepin-8-ol], the DC50 in experiment [1] turned out to be 0.2 nM. The “% Degradation at 3 μM” value in experiment [1] stood at 94%. In addition, the results for the pIC50 in experiment [2], in experiment [3] and in experiment [4] were 7.30, 6.45 and 7.74, respectively.
In the case of `Cc1cccc(C2=C(c3ccc(O[C@H]4CCN(CCCF)C4)cc3)c3ccc(O)cc3OCC2)c1C` [Example 122, 4-(2,3-dimethylphenyl)-5-[4-[(3S)-1-(3-fluoropropyl)pyrrolidin-3-yl]oxyphenyl]-2,3-dihydro-1-benzoxepin-8-ol], the DC50 in experiment [1] came to 0.3 nM. For the same compound, in experiment [1], the “% Degradation at 3 μM” value is 91%. Further, the results for the pIC50 in experiment [2], in experiment [3] and in experiment [4] were 8.52, 7.39 and 7.62, respectively.
Consider `Oc1ccc2c(c1)C(c1ccc(O[C@H]3CCN(CCCF)C3)cc1)=C(c1cccc(F)c1Cl)CCS2` [Example 170, 4-(2-chloro-3-fluoro-phenyl)-5-[4-[(3S)-1-(3-fluoropropyl)pyrrolidin-3-yl]oxyphenyl]-2,3-dihydro-1-benzothiepin-7-ol], for which the DC50 in experiment [1] is 1 nM. The “% Degradation at 3 μM” value in experiment [1] is recorded as 81%. Besides, the pIC50 in experiment [2] is 7.74; in experiment [3], 6.89; in experiment [4], 7.09.
As to `Oc1ccc(C2=C(c3ccc(O[C@H]4CCN(CCCF)C4)cc3)c3ccc(O)cc3OCC2)c(F)c1` [Example 94, 4-(2-fluoro-4-hydroxy-phenyl)-5-[4-[(3S)-1-(3-fluoropropyl)pyrrolidin-3-yl]oxyphenyl]-2,3-dihydro-1-benzoxepin-8-ol], in experiment [1], the DC50 is 0.2 nM. The “% Degradation at 3 μM” value in experiment [1] came to 87%. Further, the pIC50 in experiment [2] is 8.70; in experiment [3], 8.00; in experiment [4], 8.22.
For the compound `Cc1cc(F)ccc1C1=C(c2ccc(O[C@H]3CCN(CCCF)C3)cc2)c2ccc(O)cc2SCC1` [Example 165, 4-(4-fluoro-2-methyl-phenyl)-5-[4-[(3S)-1-(3-fluoropropyl)pyrrolidin-3-yl]oxyphenyl]-2,3-dihydro-1-benzothiepin-8-ol], the DC50 in experiment [1] is 0.2 nM. Further, the “% Degradation at 3 μM” value in experiment [1] was found to be 90%. The pIC50 in experiment [2] was 8.52; in experiment [3], 7.96; in experiment [4], 8.10.
